How the values were obtained:
Assay type in all cases: functional
Rattus norvegicus [1] = assay: (§1) Antiinflammatory activity in Wistar rat model of acute aseptic inflammation assessed as reduction in paw edema by measuring C-reactive protein level at 25 mg/kg, IG preadministered with compound for 1 hrs followed by carrageenan administration and measured after 3 hrs by ELISA (reference value: 10.64 +/- 1.223 ng/ml); details: time 4 hrs
Rattus norvegicus [2] = assay: as §1, with “COX-2” for “C-reactive protein”, “15.00” for “10.64”, “4.243” for “1.223”; details: time 4 hrs
Rattus norvegicus [3] = assay: as §1, with “IL-1beta” for “C-reactive protein”, “3.250” for “10.64”, “0.778 pg/ml)” for “1.223 ng/ml)”; details: time 4 hrs
Rattus norvegicus [4] = assay: (§2) Antiinflammatory activity in Wistar rat model of acute aseptic inflammation assessed as decrease in nitrotyrosine level at 25 mg/kg, IG preadministered with compound for 1 hrs followed by carrageenan administration and measured after 3 hrs by ELISA relative to control; set-up: scale not given: the % may be the effect or the level left; details: time 4 hrs
Rattus norvegicus [5] = assay: Antiinflammatory activity in Wistar rat model of acute aseptic inflammation assessed as increase in eNOS level at 25 mg/kg, IG preadministered with compound for 1 hrs followed by carrageenan administration and measured after 3 hrs by ELISA relative to control; details: time 4 hrs
Rattus norvegicus [6] = assay: as §1, with “nitrotyrosine” for “C-reactive protein”, “16.45” for “10.64”, “3.748 nM/ml)” for “1.223 ng/ml)”; details: time 4 hrs
Rattus norvegicus [7] = assay: (§3) Antiinflammatory activity in carrageenan induced Wistar rat model of acute aseptic inflammation assessed as edema paw volume at 25 mg/kg, IG preadministered with compound for 1 hrs followed by carrageenan administration and measured after 3 hrs by water displacement plethysmometer (reference value: 2.48 +/- 0.09 ml); details: time 4 hrs
Rattus norvegicus [8] = assay: as §2, with “inhibition of carrageenan-induced exudative inflammation” for “decrease in nitrotyrosine level”, “water displacement plethysmometer” for “ELISA”; details: po, time 4 hrs
Rattus norvegicus [9] = assay: as §1, with “neutrophils” for “C-reactive protein”, “hrs” for “hrs by ELISA”, “4.100” for “10.64”, “0.424 10^3/ml)” for “1.223 ng/ml)”; details: time 4 hrs
Rattus norvegicus [10] = assay: as §3, with “healthy” for “edema”, “1.20” for “2.48”, “0.06” for “0.09”; details: time 4 hrs
Rattus norvegicus [11] = assay: as §1, with “eNOS” for “C-reactive protein”, “8.150” for “10.64”, “6.576 pg/ml)” for “1.223 ng/ml)”; details: time 4 hrs
Rattus norvegicus [12] = assay: as §3, with “2.23” for “2.48”, “0.13” for “0.09”; details: time 4 hrs
Rattus norvegicus [13] = assay: as §3, with “healthy” for “edema”, “1.38” for “2.48”, “0.06” for “0.09”; details: time 4 hrs

| SMILES | Activity (Rattus norvegicus [1]) [ng/mL] | Activity (Rattus norvegicus [2]) [ng/mL] | Activity (Rattus norvegicus [3]) [pg/mL] | Activity (Rattus norvegicus [4]) [%] | Activity (Rattus norvegicus [5]) [%] | Activity (Rattus norvegicus [6]) [nM/ml] | Activity (Rattus norvegicus [7]) [mL] | inhibition in vivo at 25 mg/kg (Rattus norvegicus [8]) [%] | Activity (Rattus norvegicus [9]) | Activity (Rattus norvegicus [10]) [mL] | Activity (Rattus norvegicus [11]) [pg/mL] | Activity (Rattus norvegicus [12]) [mL] | Activity (Rattus norvegicus [13]) [mL] |
| --- | --- | --- | --- | --- | --- | --- | --- | --- | --- | --- | --- | --- | --- |
| O=C(O)c1cc(C2Nc3ccccc3-c3nc(-c4ccccc4)nn32)ccc1O (stereo not drawn) | 5.267 | 11.27 | 0.427 | 30.88 | 77.06 | 10.67 | 2.13 | 33.1 | 2.433 10^3/ml | 1.28 | 25.97 |  |  |
| CCOC(=O)c1ccc(-c2nc3n(n2)C(c2ccc(C(=O)O)c(O)c2)Nc2ccccc2-3)cc1 (stereo not drawn) |  |  |  |  |  |  | 2.38 | 18.3 |  | 1.39 |  |  |  |
| O=C1c2ccccc2C2N1c1ccccc1-c1nc(-c3ccccc3)nn12 (stereo not drawn) |  |  |  |  |  |  |  | 12.5 |  |  |  | 1.99 | 1.25 |
| O=C(O)C1Nc2ccccc2-c2nc(-c3ccccc3)nn21 (stereo not drawn) |  |  |  |  |  |  |  | 12.2 |  |  |  | 2.03 | 1.28 |
| CCOC(=O)c1nc2n(n1)C(c1ccc(C(=O)O)cc1)Nc1ccccc1-2 (stereo not drawn) | 2.48 | 3.033 | 0.253 |  |  | 5.367 | 2.05 | 52.7 | 1.667 10^3/ml | 1.45 | 39.9 |  |  |
| CCOC(=O)c1ccc(-c2nc3n(n2)C(c2cccc(C(=O)O)c2)Nc2ccccc2-3)cc1 (stereo not drawn) | 4.233 | 3.8 | 0.613 |  |  | 6.433 | 2.24 | 31 | 2.4 10^3/ml | 1.36 | 28.03 |  |  |
| O=C1CCC2(C(=O)O)N1c1ccccc1-c1nc(-c3ccccc3)nn12 (stereo not drawn) |  |  |  |  |  |  |  | 6.22 |  |  |  | 2.19 | 1.39 |
| O=C(O)CCC12CCC(=O)N1c1ccccc1-c1nc(-c3ccccc3)nn12 (stereo not drawn) |  |  |  |  |  |  |  | 0.94 |  |  |  | 2.25 | 1.41 |
| CCOC(=O)c1nc2n(n1)C1(CCC(=O)O)CCC(=O)N1c1ccccc1-2 (stereo not drawn) |  |  |  |  |  |  |  | 12.2 |  |  |  | 2.03 | 1.28 |
| CCOC(=O)C1(C)Nc2ccccc2-c2nc(-c3ccccc3)nn21 (stereo not drawn) |  |  |  |  |  |  |  | 24.3 |  |  |  | 2.03 | 1.39 |
| O=C(O)c1ccc(C2Nc3ccccc3-c3nc(-c4ccccc4)nn32)cc1 (stereo not drawn) |  |  |  |  |  |  | 2.35 | 16.1 |  | 1.28 |  |  |  |
| CCOC(=O)c1nc2n(n1)C(c1ccc(O)c(C(=O)O)c1)Nc1ccccc1-2 (stereo not drawn) | 3.183 | 3.7 | 2.633 |  |  | 5.6 | 2.03 | 45.8 | 2.133 10^3/ml | 1.34 | 35.23 |  |  |
| CCOC(=O)CC1(C)Nc2ccccc2-c2nc(-c3ccc(OC)cc3)nn21 (stereo not drawn) |  |  |  |  |  |  |  | 7.27 |  |  |  | 2.12 | 1.33 |
| CCOC(=O)c1ccc(-c2nc3n(n2)C2(C(=O)O)CCC(=O)N2c2ccccc2-3)cc1 (stereo not drawn) |  |  |  |  |  |  |  | 5.75 |  |  |  | 2.23 | 1.43 |
| O=C([O-])Cc1ccccc1Nc1c(Cl)cccc1Cl.[Na+] [DICLOFENAC SODIUM] | 4.245 | 9.785 | 1.27 | 21.42 | 18.07 | 17.6 |  | 69.8 | 2.52 10^3/ml |  | 8.43 | 1.84 | 1.55 |
| CCOC(=O)c1ccc(-c2nc3n(n2)C(c2ccc(C(=O)O)cc2)Nc2ccccc2-3)cc1 (stereo not drawn) | 5.8 | 4.367 | 0.87 |  |  | 11.37 | 2.37 | 21.9 | 2.533 10^3/ml | 1.38 | 14.43 |  |  |
